Entries after “also recorded” stand apart in the source; their conditions may differ.
Assays:
[1] = tested on: TLK1; assay: TLK1 protein level in NCI-H460 cells (Western blot); type: cell-based, human; settings: first 6 h after addition
From the text: FIGS. 3A-D illustrate the timecourse as well the downstream signaling events of dsRNA mediated Tak1-D activation in more detail. […] This activation is not triggered by siRNA si6 or by the non-targeting scrambled sequence siNT, even at later timepoints. […] The activation of TAK1-D leads to a phosphorylation of the MAPKKs of both stress activated protein kinase signaling pathways, indicated by the occurrence of activation phosphorylation on MKK3/6 and MKK4 (FIG. 3A). Consecutively activation of MKK3/6 leads to phosphorylation and activation of the p38 MAPK, while activation of MKK4 phosphorylates and activates SAPK/JNK. These mitogen activated protein kinase kinases phosphorylate and activate their respective substrates p38 MAP kinase and SAPK/JNK. […] This provided further confirmation, apart from the rapid occurrence of TAK1-D phosphorylation, that gene silencing effects of the siRNAs play no role in the phenomena described.

[2] = tested on: NF-κB; assay: NF-κB activation in H460 cells (EMSA, IKKα/β phosphorylation); type: cell-based, human; settings: hours after transfection (3 h, 6 h)
Description: EMSA. Electrophoretic mobility shift assays for NFκB were performed as described previously (Kurland et al., 2001) using 3.5 μg of nuclear protein for each reaction.
FIG. 16B illustrates the effect of dominant-negative TAK1-D/K63W on dsRNA si5 induced cell death. […] As a slight growth inhibition of si5 transfected H460-K63W cells can be observed in FIG. 16B it is interesting to ask whether this is caused by an incomplete suppression of TAK1-D activity or by activation of other dsRNA-dependent stress pathways. To answer this question, the activation of the transcription factor NF-κB by dsRNA si5 was tested, as it well established that dsRNA triggered activation of PKR (Zamanian-Daryoush et al., 2000), TLR3 (Jiang et al., 2003), and RIG1/Mda-5 (Hiscott et al., 2006) leads to a downstream activation of NF-κB.

[3] = target: T1, TAK1-D/TAB1 complex (Homo sapiens, UniProt O43318); assay: In vitro kinase assay with purified FLAG-TAK1-D/His-TAB1; type: biochemical; settings: purified proteins, cell-free
T1 construct: made in house; host or cells: HeLa cells
T1 sequence (O43318 1-491 isoform O43318-4): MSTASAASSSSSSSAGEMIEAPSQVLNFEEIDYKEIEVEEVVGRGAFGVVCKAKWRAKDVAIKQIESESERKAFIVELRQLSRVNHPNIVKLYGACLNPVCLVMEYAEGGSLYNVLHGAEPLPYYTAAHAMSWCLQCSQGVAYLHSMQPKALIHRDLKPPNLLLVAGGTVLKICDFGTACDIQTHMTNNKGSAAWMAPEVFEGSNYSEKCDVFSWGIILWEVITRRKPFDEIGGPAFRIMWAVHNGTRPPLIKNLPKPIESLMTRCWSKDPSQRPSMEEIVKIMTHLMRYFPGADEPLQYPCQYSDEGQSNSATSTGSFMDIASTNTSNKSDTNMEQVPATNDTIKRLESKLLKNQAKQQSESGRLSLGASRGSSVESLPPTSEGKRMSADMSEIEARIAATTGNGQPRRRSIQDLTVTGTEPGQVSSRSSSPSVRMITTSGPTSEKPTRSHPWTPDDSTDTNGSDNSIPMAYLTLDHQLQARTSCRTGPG
T1 sequence (Q15750 1-504 partner): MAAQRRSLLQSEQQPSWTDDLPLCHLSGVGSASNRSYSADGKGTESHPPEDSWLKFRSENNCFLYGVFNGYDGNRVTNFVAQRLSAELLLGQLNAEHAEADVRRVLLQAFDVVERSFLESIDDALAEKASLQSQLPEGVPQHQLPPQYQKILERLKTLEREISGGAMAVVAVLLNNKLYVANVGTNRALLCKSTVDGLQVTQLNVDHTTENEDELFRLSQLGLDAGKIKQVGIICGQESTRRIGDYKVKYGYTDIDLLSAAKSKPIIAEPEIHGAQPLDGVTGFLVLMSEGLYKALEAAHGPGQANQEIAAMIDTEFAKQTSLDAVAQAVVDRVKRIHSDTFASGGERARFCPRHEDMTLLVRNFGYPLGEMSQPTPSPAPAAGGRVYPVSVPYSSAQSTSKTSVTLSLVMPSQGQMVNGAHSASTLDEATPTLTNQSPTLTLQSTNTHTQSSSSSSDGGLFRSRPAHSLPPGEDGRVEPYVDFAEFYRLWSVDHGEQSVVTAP
From the text: FIGS. 2A-C: Effect of dsRNAs on the activity of purified recombinant TAK1-D protein. (FIG. 2A) In vitro kinase assay showing the activation of TAK1-D autophosphorylation by siRNA si5. FLAG-tagged TAK1-D and His-tagged TAB1 were coexpressed in Hela cells and purified by immunoprecipitation with anti FLAG antibody. […] Error bars indicate the standard error of 3 experiments.
To verify if siRNA si5 indeed interacts with TAK1-D directly, the activation of the kinase was studied in vitro using purified proteins. […] To test whether the increased activation of the TAK1-D/TAB1 complex by siRNA si5 is caused by an increased affinity of the RNA molecule to the kinase, binding of radiolabeled siRNAs to immunoprecipitated FLAG tagged TAK1-D was measured. In FIG. 2C the amount of RNA bound to immobilized FLAG-TAK1-D is given.
FLAG-tagged TAK1-D and HIS-tagged TAB1 were co-expressed in HeLa cells and the proteins were purified through immunoprecipitation with an anti-FLAG antibody.

[4] = tested on: p38 MAP kinase pathway; assay: Activation of the p38 MAP kinase pathway in H460 cells (Western blot); type: cell-based, human; settings: for activation of the p38 MAP kinase pathway (phosphorylation of MKK3/6, p38 MAPK): H460 cells, 20 nM RNA, 2-6 h
From the text: Both siRNAs were directed against the mRNA of the same gene TLK1.

[5] = tested on: H460 xenograft tumors; assay: Immunohistochemistry for cleaved Caspase-3 in H460 xenograft tumors; type: in vivo, mice; settings: 16 hours after intratumoral injection
Description: To gain an insight into the mechanisms of dsRNA si5-induced growth delay in H460 xenograft tumors shown in FIG. 26, the tumors were analyzed by immunohistochemical staining for apoptotic activation of Caspase-3. Two tumors with a volume of about 500 μl were injected with a liposomal preparation of active and control dsRNA as described above. Sixteen hours after injection mice were sacrificed and the tumors were fixed in formaldehyde. After paraffin embedding 5 μm sections were cut from the central region of the tumor. The sections were stained immunohistochemically using a primary antibody against cleaved Caspase-3. The primary antibody was detected using a biotinylated secondary antibody and an peroxidase ABC-Kit (Vector Laboratories). Diaminobenzidine (DAB) was used as a substrate for immunohistochemical detection and the slides were counterstained with Hematoxylin.

Row | Substance | protein levels of Tlk1 [1] | activation of NF-κB (EMSA of nuclear protein) [2] | autophosphorylation activity of the TAK1-D/TAB1 complex [3] | activation of the p38 MAP kinase pathway (phosphorylation of MKK3/6, p38 MAPK) [4] | apoptotic activation of Caspase-3 (DAB staining) [5] | induced activating phosphorylation of p38 MAPK in cells expressing dominant-negative Tak1-D (K63W) ([4]; H460, adenoviral K63W vs β-galactosidase vector, 20 nM dsRNA 4 h) | activation of the p38 MAP kinase pathway (phosphorylation of MKK3/6, p38 MAPK) ([4]; listed as Si5) | activating phosphorylation of p38 MAP kinase in TAK1-D/K63W transfected cells ([4]; H460 stably transfected with K63W vs wt and vector, 4 h)
1 | si6: control 21-mer siRNA against TLK1 mRNA: GGGUGGAAAUGGCUCAAGUtt (SEQ ID NO: 4) / gtCCCACCUUUACCGAGUUCA (SEQ ID NO: 5) (sense GGGUGGAAAUGGCUCAAGUTT; antisense GTCCCACCUUUACCGAGUUCA; chemistry not given here; one strand is listed 3' to 5') [reference compound] | remain unchanged | neither si5 nor si6 transfection lead to an activation | not | had no effect; also recorded: does not occur; also recorded: No activation | – | – | – | –
2 | si5: 21-mer siRNA against TLK1 mRNA: GGCUUUUGACCUUUAUGAAtt (SEQ ID NO: 2) / ttCCGAAAACUGGAAAUACUU (SEQ ID NO: 3) (sense GGCUUUUGACCUUUAUGAATT; antisense TTCCGAAAACUGGAAAUACUU; chemistry not given here; one strand is listed 3' to 5') | remain unchanged | neither si5 nor si6 transfection lead to an activation; also recorded: does not activate NF-κB | increase in autophosphorylation activity; also recorded: increased the autophosphorylation activity | activation of the p38 MAP kinase pathway; also recorded: able to activate Tak1-D and consecutively p38 MAPK; also recorded: activate the pathway most effectively | visible in many cells | significantly reduced | phosphorylation and activation of MKK3/6 as well as MKK4 | very significant reduction; also recorded: significantly reduced

From US8163709B2, “TAK1-D mediated induction of cell death in human cancer cells by specific sequence short double-stranded RNAS” (Board of Regents of the University of Texas System, priority 2008, dated 2012)
